# Target: HPK1 (Homo sapiens (Human), UniProt Q92918)
# Assay: HPK1 Lantha binding assay ("Lanth")
# Settings: binding assays; Morrison Ki fit
# In short: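 TR-FRET binding competition using 2 nM HPK1, 2 nM Eu-anti-GST antibody and 15 nM Tracer222 at 23 °C. Compound was incubated 1 h with enzyme and antibody, then 1 h after tracer addition, with an 11-point 5-fold dilution series. Ki obtained from a Morrison fit that corrects for tracer concentration and Kd.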
# Chain of HPK1 (Q92918 1-346 limits assumed): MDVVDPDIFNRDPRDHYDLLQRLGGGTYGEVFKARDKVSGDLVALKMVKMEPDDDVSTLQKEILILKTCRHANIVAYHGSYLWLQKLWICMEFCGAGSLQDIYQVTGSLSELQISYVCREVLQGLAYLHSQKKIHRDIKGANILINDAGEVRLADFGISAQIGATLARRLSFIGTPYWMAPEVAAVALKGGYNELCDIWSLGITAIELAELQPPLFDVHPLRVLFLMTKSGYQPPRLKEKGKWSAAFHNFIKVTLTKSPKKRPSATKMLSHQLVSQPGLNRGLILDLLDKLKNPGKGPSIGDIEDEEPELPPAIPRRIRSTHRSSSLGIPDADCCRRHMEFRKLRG
row,Structure (SMILES),Ki [nM]
1,"CN(Cc1cnn(C)c1)C(=O)c1c(N)ccc(-c2cnc3c(c2Cl)C2(CC2)CN3)c1F [Compound 166, 6-Amino-3-(4′-chloro-1′,2′-dihydrospiro[cyclopropane-1,3′-pyrrolo[2,3-b]pyridin]-5′-yl)-2-fluoro-N-methyl-N-((1-methyl-1H-pyrazol-4-yl)methyl)benzamide]",4.39
2,"O=C(c1cccc(-c2cnc3c(c2)C2(CC2)CN3)c1F)N1CCc2ccncc21 [Compound 176, (2,3-dihydro-1H-pyrrolo[2,3-c]pyridin-1-yl)(3-(1′,2′-dihydrospiro[cyclopropane-1,3′-pyrrolo[2,3-b]pyridin]-5′-yl)-2-fluorophenyl)methanone]",127
3,"CCS(=O)(=O)c1cccc(-c2cnc3c(c2Cl)C2(CC=CC2)CN3)c1 [Compound 184, 4′-Chloro-5′-(3-(ethylsulfonyl)phenyl)-1′,2′-dihydrospiro[cyclopentane-1,3′-pyrrolo[2,3-b]pyridin]-3-ene]",50.3
4,"CCNS(=O)(=O)c1ccc(-c2cnc3c(c2Cl)C2(CC=CC2)CN3)cc1 [Compound 189, 4-(4′-Chloro-1′,2′-dihydrospiro[cyclopentane-1,3′-pyrrolo[2,3-b]pyridin]-3-en-5′-yl)-N-ethylbenzenesulfonamide]",315
5,"CN(C)C(=O)c1c(N)ccc(-c2cnc3c(c2Cl)[C@]2(CC[C@](C)(O)CC2)CN3)c1F [Compound 194b, 6-Amino-3-((1s,4s)-4′-chloro-4-hydroxy-4-methyl-1′,2′-dihydrospiro[cyclohexane-1,3′-pyrrolo[2,3-b]pyridin]-5′-yl)-2-fluoro-N,N-dimethylbenzamide]",8.36
6,"OCC1(c2ccc(-c3cnc4c(c3Cl)C3(CC=CC3)CN4)cc2)CC1 [Compound 204, (1-(4-(4′-Chloro-1′,2′-dihydrospiro[cyclopentane-1,3′-pyrrolo[2,3-b]pyridin]-3-en-5′-yl)phenyl)cyclopropyl)methanol]",285
7,"CN(C)C(=O)c1ccc(-c2cnc3c(c2Cl)C2(CC=CC2)CN3)cc1F [Compound 205, 4-(4′-Chloro-1′,2′-dihydrospiro[cyclopentane-1,3′-pyrrolo[2,3-b]pyridin]-3-en-5′-yl)-2-fluoro-N,N-dimethylbenzamide]",267
8,"CN(C)C(=O)c1ccc(-c2cnc3c(c2Cl)C2(CC=CC2)CN3)c(F)c1 [Compound 206, 4-(4′-Chloro-1′,2′-dihydrospiro[cyclopentane-1,3′-pyrrolo[2,3-b]pyridin]-3-en-5′-yl)-3-fluoro-N,N-dimethylbenzamide]",436
9,"O=S1(=O)CCCN1c1ccc(-c2cnc3c(c2Cl)C2(CC=CC2)CN3)cc1 [Compound 208, 2-(4-(4′-Chloro-1′,2′-dihydrospiro[cyclopentane-1,3′-pyrrolo[2,3-b]pyridin]-3-en-5′-yl)phenyl)isothiazolidine 1,1-dioxide]",201
10,"CS(=O)(=O)Nc1cccc(-c2cnc3c(c2Cl)C2(CC=CC2)CN3)c1 [Compound 210, N-(3-(4′-Chloro-1′,2′-dihydrospiro[cyclopentane-1,3′-pyrrolo[2,3-b]pyridin]-3-en-5′-yl)phenyl)methanesulfonamide]",70.8
11,"CC(=O)NCc1cccc(-c2cnc3c(c2Cl)C2(CC=CC2)CN3)c1 [Compound 211, N-(3-(4′-Chloro-1′,2′-dihydrospiro[cyclopentane-1,3′-pyrrolo[2,3-b]pyridin]-3-en-5′-yl)benzyl)acetamide]",145
12,"CC(=O)NCc1ccc(-c2cnc3c(c2Cl)C2(CC=CC2)CN3)cc1 [Compound 212, N-(4-(4′-Chloro-1′,2′-dihydrospiro[cyclopentane-1,3′-pyrrolo[2,3-b]pyridin]-3-en-5′-yl)benzyl)acetamide]",112
13,"CC(=O)NCCc1ccc(-c2cnc3c(c2Cl)C2(CC=CC2)CN3)cc1 [Compound 213, N-(4-(4′-chloro-1′,2′-dihydrospiro[cyclopentane-1,3′-pyrrolo[2,3-b]pyridin]-3-en-5′-yl)phenethyl)acetamide]",286
14,"OCc1ccc(-c2cnc3c(c2Cl)C2(CC=CC2)CN3)c(F)c1 [Compound 216, (4-(4′-Chloro-1′,2′-dihydrospiro[cyclopentane-1,3′-pyrrolo[2,3-b]pyridin]-3-en-5′-yl)-3-fluorophenyl)methanol]",330

# Continued by falling Ki, values first:
row,Ki [nM],Structure (SMILES)
1,885,"O=S(=O)(c1ccc(-c2cnc3c(c2Cl)C2(CC=CC2)CN3)cc1)n1cccn1 [Compound 203, 5′-(4-((1H-Pyrazol-1-yl)sulfonyl)phenyl)-4′-chloro-1′,2′-dihydrospiro[cyclopentane-1,3′-pyrrolo[2,3-b]pyridin]-3-ene]"
2,829,"CC(C)(O)c1ccc(-c2cnc3c(c2Cl)C2(CC=CC2)CN3)cc1 [Compound 182, 2-(4-(4′-Chloro-1′,2′-dihydrospiro[cyclopentane-1,3′-pyrrolo[2,3-b]pyridin]-3-en-5′-yl)phenyl)propan-2-ol]"
3,676,"Clc1c(-c2ccc(-n3cccn3)cc2)cnc2c1C1(CC=CC1)CN2 [Compound 215, 5′-(4-(1H-Pyrazol-1-yl)phenyl)-4′-chloro-1′,2′-dihydrospiro[cyclopentane-1,3′-pyrrolo[2,3-b]pyridin]-3-ene]"
4,478,"OCc1cccc(-c2cnc3c(c2Cl)C2(CC=CC2)CN3)c1F [Compound 219, (3-(4′-Chloro-1′,2′-dihydrospiro[cyclopentane-1,3′-pyrrolo[2,3-b]pyridin]-3-en-5′-yl)-2-fluorophenyl)methanol]"
5,359,"N#Cc1cccc(-c2cnc3c(c2Cl)C2(CC=CC2)CN3)c1 [Compound 190, 3-(4′-Chloro-1′,2′-dihydrospiro[cyclopentane-1,3′-pyrrolo[2,3-b]pyridin]-3-en-5′-yl)benzonitrile]"
6,340,"O=C(NCCO)c1ccc(-c2cnc3c(c2Cl)C2(CC=CC2)CN3)cc1 [Compound 214, 4-(4′-Chloro-1′,2′-dihydrospiro[cyclopentane-1,3′-pyrrolo[2,3-6]pyridin]-3-en-5′-yl)-N-(2-hydroxyethyl)benzamide]"
7,319,"O=C(c1cccc(-c2cnc3c(c2)C2(CC2)CN3)c1F)N1CCc2ccccc21 [Compound 172, (3-(1′,2′-dihydrospiro[cyclopropane-1,3′-pyrrolo[2,3-b]pyridin]-5′-yl)-2-fluorophenyl)(indolin-1-yl)methanone]"
8,308,"Clc1c(-c2ccc(COC3CCOCC3)cc2)cnc2c1C1(CC=CC1)CN2 [Compound 220, 4′-Chloro-5′-(4-(((tetrahydro-2H-pyran-4-yl)oxy)methyl)phenyl)-1′,2′-dihydrospiro[cyclopentane-1,3′-pyrrolo[2,3-b]pyridin]-3-ene]"
9,300,"CCS(=O)(=O)c1ccc(-c2cnc3c(c2Cl)C2(CC=CC2)CN3)cc1 [Compound 187, 4′-Chloro-5′-(4-(ethylsulfonyl)phenyl)-1′,2′-dihydrospiro[cyclopentane-1,3′-pyrrolo[2,3-b]pyridin]-3-ene]"
10,276,"CS(=O)(=O)c1ccc(-c2cnc3c(c2Cl)C2(CC=CC2)CN3)cc1 [Compound 186, 4′-Chloro-5′-(4-(methylsulfonyl)phenyl)-1′,2′-dihydrospiro[cyclopentane-1,3′-pyrrolo[2,3-b]pyridin]-3-ene]"
11,230,"CN(C)S(=O)(=O)Nc1cccc(-c2cnc3c(c2Cl)C2(CC=CC2)CN3)c1 [Compound 218, N-(3-(4′-Chloro-1′,2′-dihydrospiro[cyclopentane-1,3′-pyrrolo[2,3-b]pyridin]-3-en-5′-yl)phenyl)-N′,N′-dimethylsulfamide]"
12,210,"CNS(=O)(=O)c1ccc(-c2cnc3c(c2Cl)C2(CC=CC2)CN3)cc1 [Compound 188, 4-(4′-Chloro-1′,2′-dihydrospiro[cyclopentane-1,3′-pyrrolo[2,3-b]pyridin]-3-en-5′-yl)-N-methylbenzenesulfonamide]"
13,199,"O=S(=O)(Nc1cccc(-c2cnc3c(c2Cl)C2(CC=CC2)CN3)c1)C1CC1 [Compound 209, N-(3-(4′-Chloro-1′,2′-dihydrospiro[cyclopentane-1,3′-pyrrolo[2,3-b]pyridin]-3-en-5′-yl)phenyl)cyclopropanesulfonamide]"
14,198,"OCc1ccc(-c2cnc3c(c2Cl)C2(CC=CC2)CN3)cc1 [Compound 181, (4-(4′-Chloro-1′,2′-dihydrospiro[cyclopentane-1,3′-pyrrolo[2,3-b]pyridin]-3-en-5′-yl)phenyl)methanol]"
15,87,"O=S(=O)(Nc1ccc(-c2cnc3c(c2Cl)C2(CC=CC2)CN3)cc1)C1CC1 [Compound 207, N-(4-(4′-Chloro-1′,2′-dihydrospiro[cyclopentane-1,3′-pyrrolo[2,3-b]pyridin]-3-en-5′-yl)phenyl)cyclopropanesulfonamide]"
16,75.8,"CNS(=O)(=O)c1cccc(-c2cnc3c(c2Cl)C2(CC=CC2)CN3)c1 [Compound 185, 3-(4′-Chloro-1′,2′-dihydrospiro[cyclopentane-1,3′-pyrrolo[2,3-b]pyridin]-3-en-5′-yl)-N-methylbenzenesulfonamide]"
17,54,"CN(C)C(=O)c1c(N)ccc(-c2cnc3c(c2Cl)[C@]2(CC[C@H](n4nccc4C(F)(F)F)C2)CN3)c1F [Compound 169a, 6-Amino-3-((1R,3S)-4′-chloro-3-(5-(trifluoromethyl)-1H-pyrazol-1-yl)-1′,2′-dihydrospiro[cyclopentane-1,3′-pyrrolo[2,3-b]pyridin]-5′-yl)-2-fluoro-N,N-dimethylbenzamide]"
18,30.4,"CN(C)C(=O)c1c(N)ccc(-c2cnc3c(c2Cl)[C@]2(CC[C@@](C)(O)CC2)CN3)c1F [Compound 194a, 6-Amino-3-((1r,4r)-4′-chloro-4-hydroxy-4-methyl-1′,2′-dihydrospiro[cyclohexane-1,3′-pyrrolo[2,3-b]pyridin]-5′-yl)-2-fluoro-N,N-dimethylbenzamide]"
19,30.3,CS(=O)(=O)c1cccc(-c2cnc3c(c2Cl)C2(CC=CC2)CN3)c1 [Compound 183]
20,4.76,"CN(C)C(=O)c1c(N)ccc(-c2cnc3c(c2Cl)C2(CCCCC2)CN3)c1F [Compound 200, 6-Amino-3-(4′-chloro-1′,2′-dihydrospiro[cyclohexane-1,3′-pyrrolo[2,3-b]pyridin]-5′-yl)-2-fluoro-N,N-dimethylbenzamide]"

# — patent US12208088B2 (Genentech, Inc., priority 2018, dated 2025)
